{"source": "patent US6127349A", "about": "“Phospholipid drug derivatives” (Amur Research Corporation, priority 1998, dated 2000)", "key": {"[1]": {"details": "oral; cited from earlier work"}, "[2]": {"system": "cutaneous hypersensitivity immune response", "test": "DNCB-induced cutaneous contact hypersensitivity (ear swelling)", "type": "in vivo, mice (Balb/c)", "details": "for cutaneous hypersensitivity immune response: 100 μg/day/mouse s.c., twelve days, ears rechallenged with 1% DNCB; for cutaneous hypersensitivity immune response / suppression of the response by dexamethasone: days 7-12; for suppression of the response by dexamethasone: steroid together with dexamethasone", "description": "The effects of DHEA-PC on cutaneous contact hypersensitivity was studied. In this study, mice (Balb/c) were immunologically challenged with DNCB (2 % in ethanol) applied to a 2 cm area on the back. The steroid was injected subcutaneously (100 μg/day/mouse) throughout the twelve-day study period. Ears were rechallenged with DNCB (1% in ethanol) on days 7-12 and swelling was measured daily in order to evaluate the effect on the immune system."}, "[3]": {"test": "Partition of tritiated DHEA-phosphocholine reaction product between aqueous phase and benzene (scintillation counting)", "type": "physicochemical", "description": "A dehydroepiandrosterone(DHEA)-phosphocholine derivative was synthesized as follows: 1 mg of phosphocholine (calcium salt; Sigma Chemical, St. Louis, Mo.) was dissolved in 0.5 ml of formamide (Cat # S-7503; Lot # 55HO257; Sigma Chemical) and 0.5 ml of pyridine (Cat # P-4036; Lot # 55H1489; Sigma Chemical). 0.025 mCi of (1,2,6,7 ^3 H(n)-Dehydroepiandrosterone (Cat # NET814; Lot # 3146097; 89.2 Ci/mmol; Dupont, NEN Products, Boston, Mass.) in 0.025 ml of ethanol was added. The reaction was catalyzed by the addition (as the dry solid) of 5 mg of dicyclohexylcarbodiimide (Cat # D-3129; Lot # 34hO647; Sigma Chemical). The reaction mixture was incubated overnight at room temperature. In the morning, 9 ml of water was added and the mixture extracted 3 times with 10 ml portions of benzene. The benzene extracts were combined and aliquots of both phases were counted in a scintillation counter. The results are set forth below:\nThe aqueous layer was re-extracted with benzene. The second benzene extraction yielded 272 cpm (0.01 M1) as a confirmation."}, "[4]": {"system": "acidic sphingomylenase", "test": "Hydrolysis of DHEA-PC by acidic sphingomyelinase", "type": "biochemical", "description": "(§1) DHEA-phosphocholine (DHEA-PC) was synthesized by sequential reaction of DHEA, choline, and water with phosphorous oxychloride. The synthetic product had the same HPLC retention time and the same mass-spectrum as did the endogenous, actual compound. […] When human serum extracts were analyzed, mass fragments were detected at the same retention time as synthetic material."}, "[5]": {"system": "neutral sphingomylenase", "test": "Hydrolysis of DHEA-PC by neutral sphingomyelinase", "type": "biochemical", "description": "as §1"}, "[6]": {"details": "cited from earlier work"}, "[7]": {"details": "literature; cited from earlier work"}, "[8]": {"details": "oral administration, cited from earlier work"}, "[9]": {"system": "enzyme on lymphocyte cell membrane that cleaves phosphocholine from other compounds", "test": "Stimulation of lymphocyte membrane enzyme that cleaves phosphocholine", "type": "biochemical", "details": "data not shown"}}}
{"compound": "C[C@]12CC[C@H](O)CC1=CC[C@@H]1[C@@H]2CC[C@]2(C)C(=O)CC[C@@H]12", "note": "[DHEA, dehydroepiandrosterone]", "values": [{"measurement": "activity when administered orally", "setting": "[1]", "result": "only limited activity"}, {"measurement": "cutaneous hypersensitivity immune response", "setting": "[2]", "result": "similar, high level response"}, {"measurement": "suppression of the response by dexamethasone", "setting": "[2]", "result": "not suppressed by dexamethasone"}, {"measurement": "extraction of free starting material into benzene", "setting": "[3]; water/benzene, expected with this protocol", "result": "extracted quantitatively into benzene"}]}
{"compound": "C[C@]12CC[C@H](OP(=O)([O-])OCC[N+](C)(C)C)CC1=CC[C@@H]1[C@@H]2CC[C@]2(C)C(=O)CC[C@@H]12", "note": "[DHEA-PC, DHEA-3-PHOSPHOCHOLINE]", "values": [{"measurement": "hydrolysis by acidic sphingomylenase", "setting": "[4]", "result": "not by acidic sphingomylenase"}, {"measurement": "cutaneous hypersensitivity immune response", "setting": "[2]", "result": "enhanced the cutaneous hypersensitivity immune response similar to native steroids"}, {"measurement": "dinitrochlorobenzene-induced sensitization", "setting": "[2]; administered to mice", "result": "potentiated dinitrochlorobenzene-induced sensitization"}, {"measurement": "suppression of the response by dexamethasone", "setting": "[2]", "result": "not suppressed by dexamethasone"}, {"measurement": "second benzene extraction radioactivity", "setting": "[3]; 0.01 M1 aliquot, re-extraction of the aqueous layer with benzene", "result": 272, "unit": "cpm"}, {"measurement": "Aqueous Phase radioactivity", "setting": "[3]; 0.01 ml aliquot, after 3 benzene extractions", "result": "10,729 cpm"}, {"measurement": "Benzene Phase radioactivity", "setting": "[3]; 0.01 ml aliquot, combined benzene extracts", "result": "1,121 cpm"}, {"measurement": "phase in which the reaction product is found", "setting": "[3]; water/benzene", "result": "remains in the aqueous phase"}, {"measurement": "hydrolysis by neutral sphingomylenase", "setting": "[5]", "result": "hydrolyzed by neutral sphingomylenase"}]}
{"compound": "C[C@]12CC[C@H](OS(=O)(=O)O)CC1=CC[C@@H]1[C@@H]2CC[C@]2(C)C(=O)CC[C@@H]12", "note": "[DHEA-sulfate]", "values": [{"measurement": "cutaneous hypersensitivity immune response", "setting": "[2]", "result": "similar, high level response"}, {"measurement": "suppression of the response by dexamethasone", "setting": "[2]", "result": "not suppressed by dexamethasone"}]}
{"compound": "O=C1N(Cc2ccc(CO)cc2)[C@H](Cc2ccccc2)[C@H](O)[C@@H](O)[C@@H](Cc2ccccc2)N1Cc1ccc(CO)cc1", "note": "[DMP-323]", "values": [{"measurement": "bioavailability upon administration to patients", "setting": "[6]", "result": "variability in the compounds bioavailability"}, {"measurement": "efficacy", "setting": "[6]; patients", "result": "inconsistent efficacy"}, {"measurement": "aqueous solubility", "setting": "[7]", "result": "low aqueous solubility"}]}
{"compound": "C[C@@H]1C[C@H]2[C@@H]3CCC4=CC(=O)C=C[C@]4(C)[C@@]3(F)[C@@H](O)C[C@]2(C)[C@@]1(O)C(=O)CO", "note": "[dexamethasone]", "values": [{"measurement": "immune response with dexamethasone administered by itself", "setting": "[2]; versus control", "result": "suppressed the immune response below the control"}]}
{"compound": "C[C@]12CC[C@@H]3c4ccc(O)cc4CC[C@H]3[C@@H]1CC[C@@H]2O", "note": "[estradiol]", "values": [{"measurement": "activity when administered orally", "setting": "[1]", "result": "only limited activity"}]}
{"compound": "C[C@]12CC[C@@H](O)C[C@H]1CC[C@@H]1[C@@H]2CC[C@]2(C)C(=O)CC[C@@H]12", "note": "[etiocholanolone]", "values": [{"measurement": "inactivated on each pass through the liver", "setting": "[8]; free compound", "result": "about 99%"}, {"measurement": "biologically available fraction of the administered drug", "setting": "[8]", "result": "only a fraction of a percent"}, {"measurement": "activity when administered orally", "setting": "[1]", "result": "only limited activity"}]}
{"compound": "C[C@]12CC[C@H]3[C@@H](CCC4=CC(=O)CC[C@@]43C)[C@@H]1CC[C@@H]2O", "note": "[testosterone]", "values": [{"measurement": "activity when administered orally", "setting": "[1]", "result": "only limited activity"}]}
{"compound": "TGF-α: stimulates lymphocyte membrane enzyme that cleaves phosphocholine", "values": [{"measurement": "stimulation of enzyme activity", "setting": "[9]", "result": "ten-fold"}]}
